Data as given in PubChem BioAssay (NCI).
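Abbreviation: GI50, concentration required for 50% inhibition of growth. TGI is the concentration that stops growth completely.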

Assays:
Experiment in all cases: NCI-60 cell line screen, 384-well format
[1] = system: 786-0 renal
[2] = system: A498 renal
[3] = system: A549 NSCLC
[4] = system: ACHN renal
[5] = system: BT-549 breast
[6] = system: CAKI-1 renal
[7] = system: CCRF-CEM leukemia
[8] = system: COLO 205 colon
[9] = system: DU-145 prostate
[10] = system: EKVX NSCLC
[11] = system: HCC-2998 colon
[12] = system: HCT-116 colon
[13] = system: HCT-15 colon
[14] = system: HL-60(TB) leukemia
[15] = system: HOP-62 NSCLC
[16] = system: HOP-92 NSCLC
[17] = system: HS 578T breast
[18] = system: HT29 colon
[19] = system: IGROV1 ovarian
[20] = system: K-562 leukemia
[21] = system: KM12 colon
[22] = system: LOX IMVI melanoma
[23] = system: M14 melanoma
[24] = system: MALME-3M melanoma
[25] = system: MCF7 breast
[26] = system: MDA-MB-231 breast
[27] = system: MDA-MB-435 melanoma
[28] = system: MDA-MB-468 breast
[29] = system: MOLT-4 leukemia
[30] = system: NCI-H226 lung
[31] = system: NCI-H23 lung
[32] = system: NCI-H322M lung
[33] = system: NCI-H460 NSCLC
[34] = system: NCI-H522 lung
[35] = system: NCI/ADR-RES ovarian
[36] = system: OVCAR-3 ovarian
[37] = system: OVCAR-4 ovarian
[38] = system: OVCAR-5 ovarian
[39] = system: OVCAR-8 ovarian
[40] = system: PC-3 prostate
[41] = system: RPMI-8226 leukemia
[42] = system: RXF 393 renal
[43] = system: SF-268 CNS
[44] = system: SF-295 CNS
[45] = system: SF-539 CNS
[46] = system: SK-MEL-28 melanoma
[47] = system: SK-MEL-5 melanoma
[48] = system: SK-OV-3 ovarian
[49] = system: SN12C renal
[50] = system: SNB-19 CNS
[51] = system: SNB-75 CNS
[52] = system: SR leukemia
[53] = system: SW-620 colon
[54] = system: T-47D breast
[55] = system: TK-10 renal
[56] = system: U251 glioblastoma
[57] = system: UACC-257 melanoma
[58] = system: UO-31 renal

## C[C@H](Nc1ccc(C#N)n(C)c1=O)c1cc2cc(Cl)ccc2[nH]c1=O
[1]
  GI50: 34 µM
  TGI: > 100 µM
[2]
  GI50: 29.6 µM
  TGI: 98 µM
[3]
  GI50: 27.7 µM
  TGI: > 100 µM
[4]
  GI50: 30.8 µM
  TGI: > 100 µM
[5]
  GI50: 19.4 µM
  TGI: 54.2 µM
[6]
  GI50: 31.1 µM
  TGI: > 100 µM
[7]
  GI50: 25.9 µM
  TGI: 60.7 µM
[8]
  GI50: 61.4 µM
  TGI: > 100 µM
[9]
  GI50: 29.4 µM
  TGI: > 100 µM
[10]
  GI50: 26.3 µM
  TGI: > 100 µM
[11]
  GI50: 16.4 µM
  TGI: 52.3 µM
[12]
  GI50: 29.3 µM
  TGI: > 100 µM
[13]
  GI50: 31.4 µM
  TGI: > 100 µM
[14]
  GI50: 20.9 µM
  TGI: 35.3 µM
[15]
  GI50: 16.4 µM
  TGI: 42.9 µM
[16]
  GI50: 22.8 µM
  TGI: 90.1 µM
[17]
  GI50: 21.4 µM
  TGI: 74 µM
[18]
  GI50: 42.6 µM
  TGI: > 100 µM
[19]
  GI50: 17 µM
  TGI: 42.8 µM
[20]
  GI50: 35.1 µM
  TGI: > 100 µM
[21]
  GI50: 39.1 µM
  TGI: > 100 µM
[22]
  GI50: 26.4 µM
  TGI: 70.7 µM
[23]
  GI50: 46 µM
  TGI: > 100 µM
[24]
  GI50: 26.7 µM
  TGI: 78.8 µM
[25]
  GI50: 24 µM
  TGI: > 100 µM
[26]
  GI50: 34.5 µM
  TGI: > 100 µM
[27]
  GI50: 30.6 µM
  TGI: 69.6 µM
[28]
  GI50: 12.7 µM
  TGI: 30.1 µM
[29]
  GI50: 12.4 µM
  TGI: 25.1 µM
[30]
  GI50: 13 µM
  TGI: 31 µM
[31]
  GI50: 25.3 µM
  TGI: 75.8 µM
[32]
  GI50: 33.2 µM
  TGI: > 100 µM
[33]
  GI50: 19.3 µM
  TGI: 52 µM
[34]
  GI50: 27.6 µM
  TGI: > 100 µM
[35]
  GI50: 19.8 µM
  TGI: 48.6 µM
[36]
  GI50: 17.8 µM
  TGI: 40.7 µM
[37]
  GI50: 16.1 µM
  TGI: 49.6 µM
[38]
  GI50: 60.8 µM
  TGI: > 100 µM
[39]
  GI50: 36.2 µM
  TGI: > 100 µM
[40]
  GI50: 19.9 µM
  TGI: 76.1 µM
[41]
  GI50: 11.4 µM
  TGI: 24.4 µM
[42]
  GI50: 19.1 µM
  TGI: 53 µM
[43]
  GI50: 29.3 µM
  TGI: > 100 µM
[44]
  GI50: 13.6 µM
  TGI: 36.8 µM
[45]
  GI50: 32.3 µM
  TGI: > 100 µM
[46]
  GI50: 36.2 µM
  TGI: 94 µM
[47]
  GI50: 15.4 µM
  TGI: 29 µM
[48]
  GI50: 27.9 µM
  TGI: > 100 µM
[49]
  GI50: 31.4 µM
  TGI: > 100 µM
[50]
  GI50: 41.6 µM
  TGI: > 100 µM
[51]
  GI50: 20.3 µM
  TGI: 73.7 µM
[52]
  GI50: 20.1 µM
  TGI: 39.4 µM
[53]
  GI50: 52.9 µM
  TGI: > 100 µM
[54]
  GI50: 22.2 µM
  TGI: 86.9 µM
[55]
  GI50: 32.5 µM
  TGI: > 100 µM
[56]
  GI50: 31.2 µM
  TGI: > 100 µM
[57]
  GI50: 20.6 µM
  TGI: 38.4 µM
[58]
  GI50: 33.8 µM
  TGI: > 100 µM
